Earlier results as cited in patent US6027728A, “Herbal skin regeneration composition and method” (priority 1998, dated 2000).

Tested on: Na+,K(+)-ATPase
Conditions: not given
For `O=C(O)c1ccccc1` [benzoic acid], the “inhibition of Na+,K(+)-ATPase activity (in words)” value (from here on “inhibition … (in words)”) is listed as “weakly inhibitory”. For `C[C@@]12C[C@@]3(O)O[C@@H](O1)[C@]1(COC(=O)c4ccc(O)cc4)[C@H]3C[C@@]12O[C@@H]1O[C@H](CO)[C@@H](O)[C@H](O)[C@H]1O` [oxypaeoniflorin], the “inhibition … (in words)” value is given as “ineffective”. For `COc1ccc(C(C)=O)c(O)c1` [paconol], the “inhibition … (in words)” value is listed as “ineffective”. For `C[C@@]12C[C@@]3(O)O[C@@H](O1)[C@]1(COC(=O)c4ccccc4)[C@H]3C[C@@]12O[C@@H]1O[C@H](COC(=O)c2cc(O)c(O)c(O)c2)[C@@H](O)[C@H](O)[C@H]1O` [galloylpaeoniflorin], the “inhibition … (in words)” value is listed as “weakly inhibitory”. For `C[C@@]12C[C@@]3(O)O[C@@H](O1)[C@]1(COC(=O)c4ccccc4)[C@H]3C[C@@]12O[C@@H]1O[C@H](CO)[C@@H](O)[C@H](O)[C@H]1O` [paeoniflorin], the “inhibition … (in words)” value is given as “ineffective”. In the case of `Oc1ccccc1` [phenol], the “inhibition … (in words)” value is listed as “ineffective”. For `Oc1cc(O)c2c(c1)OC(c1ccc(O)c(O)c1)C(O)C2` (stereo not drawn) [catechin], the “inhibition … (in words)” value is given as “weakly inhibitory”. For `C[C@]12C[C@@H](O)[C@@H]3C[C@@]1(O[C@@H]1O[C@H](CO)[C@@H](O)[C@H](O)[C@H]1O)[C@@]3(COC(=O)c1ccccc1)C(=O)O2` [albiflorin], the “inhibition … (in words)” value is listed as “ineffective”.

Same assay, conditions: with respect to ATP
In the case of `O=C(OC[C@H]1O[C@@H](OC(=O)c2cc(O)c(O)c(O)c2)[C@H](OC(=O)c2cc(O)c(O)c(O)c2)[C@@H](OC(=O)c2cc(O)c(O)c(O)c2)[C@@H]1OC(=O)c1cc(O)c(O)c(O)c1)c1cc(O)c(O)c(O)c1` [PGG, 1,2,3,4,6-Penta-O-galloyl-beta-D-glucose], the “inhibition mode with respect to ATP” value is listed as “noncompetitive”.
